Laboratory results published in paper PMC8225628, “Bispecific repurposed medicines targeting the viral and immunological arms of COVID-19” (Scientific Reports, 2021).
pIC50: −log10 of the molar value. Like-named read-outs stand apart in the source and are kept apart here. *1 amine or outer side, *2 acyl side, *3 side chain or, on linkers, in order; H or OH if unused. Where a SMILES comes first, the peptide text is derived from it. Bridges are numbered along the chain shown (N, C = ends). [ ]: non-standard residue; d: D form. The star is where a group is joined. hTyr(3S-OH,4S-OH,3'-OSO3H) = N[C@H](C(=O)O)[C@H](O)[C@@H](O)c1ccc(O)c(OS(=O)(=O)O)c1; Orn(4R-OH,5R-OH) = O=C([C@H](C[C@@H](O)[C@@H](O)N[*:3])N[*:1])[*:2]; Pro(3S-OH,4S-Me) = C[C@H]1CN[C@H](C(=O)O)[C@H]1O; X1 = CCCCCOc1ccc(-c2cc(-c3ccc(C(=O)*)cc3)no2)cc1; Gln(3R-OH) = NC(=O)C[C@@H](O)[C@H](N)C(=O)O; Hyp = O=C(O)[C@@H]1C[C@@H](O)CN1

How the values were obtained:
SARS-CoV-2 PL^pro = SARS-CoV-2 PL^pro (Severe acute respiratory syndrome coronavirus 2, UniProt P0DTD1); test: biochemical; settings: for inhibition at 10 µM: read-out: PL^pro % inhibition at 10 µM; for pIC50: read-out: PL^pro IC50; for IC50: SARS-CoV-2 PL^pro, range in brackets, read-out: IC50 (µM) (range)
SARS-CoV-2 M^pro = SARS-CoV-2 M^pro (Severe acute respiratory syndrome coronavirus 2, UniProt P0DTD1); test: biochemical; settings: for pIC50: >5e-6 = not potent enough to determine an IC50, read-out: M^pro IC50
SARS-CoV-2 = test: Antiviral assay, inhibition of SARS-CoV-2 cytopathic effect in HUH7_mCherry cells; settings: HUH7 cells, at 100 µM
Description: To measure inhibition of the SARS-CoV-2 cytopathic effect, 96-well plates (Corning 3300) were plated with HUH7_mCherry cells at 6000 cells/well in 100 µl. The day after (Day 0), compound was added in a dilution series for concentration response studies. After two hours, addition of virus dilution (final MOI 0.004) was performed and plates were left for incubation at 37 °C, 5% CO2 for four days.
At day four post-infection, mCherry signal was captured using wide field fluorescence imaging by exciting at 560_25 nm and emitting with the BGRFRN filter set. A 5 X objective sufficed to capture 65–70% of an entire well on a 96well plate (4 pictures in total). The optimal exposure time was determined based on fluorescence intensity and was set on 0.09 s. A 2 × 2 binning was used and autofocus plane count was reduced to increase image acquisition speed. An image analysis protocol was developed in-house by using the SpotDetector bioapplication (Cellomics, Thermofisher). After background reduction on the raw image files, a fixed fluorescent intensity threshold was determined for the identification of mCherry cells. Afterwards, the number of fluorescent cells (‘object count’) was calculated per well and compared to the positive (cell control) and negative (virus) control.

HUH7 cells = settings: HUH7 cells, 4 days
[1] = ReFRAME hits, >5e-6 = not potent enough to determine an IC50

Compound | PL^pro % inhibition at 10 µM (SARS-CoV-2 PL^pro; ReFRAME hits) [%] | pIC50 (SARS-CoV-2 PL^pro; [1]) | M^pro % inhibition at 10 µM (SARS-CoV-2 M^pro; ReFRAME hits, 10 µM) [%] | pIC50 (SARS-CoV-2 M^pro; ReFRAME hits) | further results
Cc1cc(O)c2c(=O)c3c(O)cc(O)c4c5c(O)cc(O)c6c(=O)c7c(O)cc(C)c8c1c2c(c34)c(c78)c65 [hypericin] |  |  |  |  | inhibition at 10 µM (SARS-CoV-2 PL^pro; ReFRAME hits): 12%; pIC50 (SARS-CoV-2 PL^pro): < 5.30
[(-)-epicatechin] | 16 | < 5.30 |  |  | 
CC(=O)Oc1ccccc1C(=O)OC1OC(=O)c2ccccc21 (stereo not shown) [talosalate] | 13 | < 5.30 | 80 | 5.40 | 
COc1ccc(/C=C/CCCCOc2ccc(C(=O)c3cccc(C(=O)O)c3)cc2CCC(=O)O)cc1 [LY 223982] | 22 | < 5.30 | 43 | < 5.30 | 
COc1cc2ncnc(Nc3ccc(F)c(Cl)c3)c2cc1NC(=O)/C=C/CN1CCCCC1 [Compound 12, Dacomitinib, reference compound] |  |  |  |  | IC50 (SARS-CoV-2 PL^pro): 4 µM
O=C(NCc1ccccn1)C(=O)C(Cc1ccccc1)NC(=O)C1CCC(=O)N1Cc1ccccc1 (stereo not shown) [Compound 1] |  |  |  |  | Antiviral effect (SARS-CoV-2): 75%; Concentration up to which non-cytotoxic (HUH7 cells): up to 100 µM
(-)-epicatechin gallate | 11 | < 5.30 |  |  | 
CCOC1OC(=O)CC1NC(=O)C1CCCN1C(=O)C(NC(=O)c1ccc(N)c(Cl)c1)C(C)(C)C (stereo not shown) [Compound 7, belnecasan, reference compound] |  |  |  |  | Inhibition of M^pro (in words) (SARS-CoV-2 M^pro): did not substantially inhibit
CN(C/C=C/C#CC(C)(C)C)Cc1cccc2c(F)cc(F)cc12 [SDZ-880-540] | 15 | < 5.30 | -1 | < 5.30 | 
COc1ccc(-c2ccc(OCc3cc(C(=O)[N-]S(=O)(=O)c4ccccc4C)oc3C)cc2)nc1.[Na+] [BGC-20-1531] | 24 | < 5.30 | 58 | < 5.30 | 
Cl.Cl.Cl.Cl.N=C(N)NCCCCC(=O)Nc1cc(C(F)(F)F)cc(NC(=O)c2cc(C(=O)Nc3cc(C(F)(F)F)cc(NC(=O)CCCCNC(=N)N)c3O[C@@H]3CCNC3)ncn2)c1O[C@@H]1CCNC1 [PMX-30063] | 30 | 5.70 | 11 | < 5.30 | 
CCOc1cc2ncc(C#N)c(Nc3ccc(F)c(Cl)c3)c2cc1NC(=O)/C=C/CN(C)C [Compound 10, Pelitinib, reference compound] |  |  |  |  | Inhibition of M^pro (in words) (SARS-CoV-2 M^pro): not determined to display significant biochemical inhibition; IC50 (SARS-CoV-2 PL^pro): > 100 µM
CCC[C@@H](NC(=O)N1C(=O)C(CC)(CC)[C@@H]1Oc1ccc(CC(=O)O)cc1)c1ccc(C)cc1 [L 680833] | 11 | < 5.30 | 36 | < 5.30 | 
SENNOSIDES [reference compound] | 72 | < 5.30 | 92 | 6.15 | 
CCCCCOc1ccc(-c2cc(-c3ccc(C(=O)N[C@H]4C[C@@H](O)[C@@H](O)NC(=O)[C@@H]5[C@@H](O)[C@@H](C)CN5C(=O)[C@H]([C@H](O)CC(N)=O)NC(=O)[C@H]([C@H](O)[C@@H](O)c5ccc(O)c(OS(=O)(=O)[O-])c5)NC(=O)[C@@H]5C[C@@H](O)CN5C(=O)[C@H]([C@@H](C)O)NC4=O)cc3)no2)cc1.[Na+] [micafungin Sodium, reference compound] (X1-[Orn(4R-OH,5R-OH)]T[Hyp][hTyr(3S-OH,4S-OH,3'-OSO3H)][Gln(3R-OH)][Pro(3S-OH,4S-Me)]; lactam 1-C) | 24 | < 5.30 |  |  | 
CC(C)(C)NC(=O)N[C@H](C(=O)N1C[C@H]2[C@@H]([C@H]1C(=O)NC(CC1CCC1)C(=O)C(N)=O)C2(C)C)C(C)(C)C (stereo partly shown) [Boceprevir, reference compound] |  |  |  |  | inhibition at 10 µM (SARS-CoV-2 M^pro; read-out: M^pro % inhibition at 10 µM, ReFRAME hits, 10 µM): 62%; inhibition at 10 µM (SARS-CoV-2 PL^pro; ReFRAME hits): -2%
[Cl][Hg][Cl] [mercuric chloride] | 16 | < 5.30 |  |  | 
